Where two headings read alike, the source gives them in different places.
What was measured:
NCI-H460 cells = experiment: Cancer cell growth inhibition experiment (MTT assay); assay type: cell-based; details: Homo sapiens, lung cancer cell line, compounds 48 hours, cell viability by MTT assay
Method: NCl-H460 cells, lung cancer cell lines, were cultured in 5% CO2, 37° C. incubator using a flask for 75 cm^2 tissue culture. 96-well plates were used for the evaluation. These were prepared by differently applying at concentrations in the range of 6,000 to 12,000 cells/well according to the growth rate of the cell lines. The medium containing 5% FBS were dispensed in 200 μL/well and used. The medium were cultured for 24 hours. After confirming the cell status and dispensing form of a 96-well plate under a microscope, they were used for subsequent experiments. The compounds were evaluated at concentrations of 100, 30, 10, 3, 1, 0.3, 0.03, 0.01 μM. After removing the existing medium, the compounds with various concentrations were treated in an amount of 200 μL/well. The compounds-treated plates were further cultured for 48 hours, and the cell viabilities were measured by MTT assay to calculate IC50 values.
% Inhibition and IC50 values of the respective compounds were calculated and analyzed using Sigma Plot 8.0. In Table 2, the results are divided into A, B and C according to the range of IC50. The case where the derived IC50 is 3 μM or less is represented by “A”, the case where the IC50 is 3 to 10 μM is represented by “B”, and the case where the IC50 is 10 μM or higher is represented by “C”.

PRS enzyme = molecular target: T1, PRS enzyme (Homo sapiens, UniProt P07814); experiment: PRS enzyme activity inhibition experiment; assay type: biochemical
T1 construct: the portion corresponding to PRS in cDNA of EPRS was subcloned; made in house
T1 sequence (P07814 1007-1512 limits assumed): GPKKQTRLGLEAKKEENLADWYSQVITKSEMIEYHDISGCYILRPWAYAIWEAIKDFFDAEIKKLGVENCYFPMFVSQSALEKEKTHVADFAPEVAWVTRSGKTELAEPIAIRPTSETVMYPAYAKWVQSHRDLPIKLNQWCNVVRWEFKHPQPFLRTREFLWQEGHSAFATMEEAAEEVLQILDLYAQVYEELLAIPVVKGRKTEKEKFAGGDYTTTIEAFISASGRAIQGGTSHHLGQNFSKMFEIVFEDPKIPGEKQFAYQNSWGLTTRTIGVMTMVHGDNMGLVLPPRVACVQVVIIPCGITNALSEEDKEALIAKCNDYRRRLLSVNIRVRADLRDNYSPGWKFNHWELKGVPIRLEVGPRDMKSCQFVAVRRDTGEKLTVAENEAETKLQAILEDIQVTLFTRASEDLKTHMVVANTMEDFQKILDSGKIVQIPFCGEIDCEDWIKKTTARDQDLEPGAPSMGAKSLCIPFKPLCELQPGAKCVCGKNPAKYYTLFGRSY
Method: Specifically, the portion corresponding to PRS in cDNA of EPRS was subcloned, and the obtained high-purity PRS protein was purified and used in the experiment. The compounds (1 μM) prepared in Examples were added into the reaction buffer (20 mM KPO4 (pH 7.4), 6 mM MgAc, 5 mM ATP, […] tRNA, 0.5 mM DTT, […][^3H]proline (1 mCi/mL)) and allowed to react at 37° C. for 5 to 10 minutes. The reaction was terminated with 3M paper that was in advance dried by addition of 5% TCA. The radioactivity was measured using a liquid scintillation counter.
% Inhibition and IC50 values of the respective compounds were calculated and analyzed using Microsoft Excel or Sigma Plot 8.0. In Table 1, the results are divided into A, B and C according to the range of IC50.

[1] = purified PRS protein subcloned from EPRS cDNA, [3H]proline, 37° C., 5 to 10 minutes, liquid scintillation counter, read-out: PRS IC50

Structure (SMILES) | IC50 (NCI-H460 cells) [nM] | IC50 (PRS enzyme; [1]) [nM] | IC50 (PRS enzyme) [nM]
O=C(C[C@H]1NCCC[C@@H]1O)Cn1cnc2cccc(-c3ccc(Cl)cc3)c21 [Example 51, 1-(7-(4-chlorophenyl)-1H-benzo[d]imidazol-1-yl)-3-((2R,3S)-3-hydroxypiperidin-2-yl)propan-2-one] | ≥ 10000 | – | 100 to 500
O=C(C[C@H]1NCCC[C@@H]1O)Cn1c(CO)nc2cc(-c3cccc(F)c3)ccc21 [Example 56, 1-(5-(3-fluorophenyl)-2-(hydroxymethyl)-1H-benzo[d]imidazol-1-yl)-3-((2R,3S)-3-hydroxypiperidin-2-yl)propan-2-one] | ≥ 10000 | > 500 | –
O=C(C[C@H]1NCCC[C@@H]1O)Cn1c(CO)nc2ccc(-c3ccccc3)cc21 [Example 57, 1-(2-(hydroxymethyl)-6-phenyl-1H-benzo[d]imidazol-1-yl)-3-((2R,3S)-3-hydroxypiperidin-2-yl)propan-2-one] | 3000 to 10000 | < 100 | –
O=C(C[C@H]1NCCC[C@@H]1O)Cn1c(CO)nc2ccc(-c3ccccc3F)cc21 [Example 58, 1-(6-(2-fluorophenyl)-2-(hydroxymethyl)-1H-benzo[d]imidazol-1-yl)-3-((2R,3S)-3-hydroxypiperidin-2-yl)propan-2-one] | 3000 to 10000 | < 100 | –
O=C(C[C@H]1NCCC[C@@H]1O)Cn1c(CO)nc2ccc(-c3cccc(F)c3)cc21 [Example 59, 1-(6-(3-fluorophenyl)-2-(hydroxymethyl)-1H-benzo[d]imidazol-1-yl)-3-((2R,3S)-3-hydroxypiperidin-2-yl)propan-2-one] | ≤ 3000 | < 100 | –
O=C(C[C@H]1NCCC[C@@H]1O)Cn1c(CO)nc2ccc(-c3ccc(F)cc3)cc21 [Example 60, 1-(6-(4-fluorophenyl)-2-(hydroxymethyl)-1H-benzo[d]imidazol-1-yl)-3-((2R,3S)-3-hydroxypiperidin-2-yl)propan-2-one] | ≥ 10000 | < 100 | –
O=C(C[C@H]1NCCC[C@@H]1O)Cn1c(CO)nc2ccc(-c3cccc(C(F)(F)F)c3)cc21 [Example 61, 1-(2-(hydroxymethyl)-6-(3-(trifluoromethyl)phenyl)-1H-benzo[d]imidazol-1-yl)-3-((2R,3S)-3-hydroxypiperidin-2-yl)propan-2-one] | ≤ 3000 | 100 to 500 | –
OC(C[C@H]1NCCC[C@@H]1O)Cn1cnc2ccc(-c3cccc(Cl)c3)nc21 (stereo partly drawn) [Example 62, (2R,3S)-2-(3-(5-(3-chlorophenyl)-3H-imidazo[4,5-b]pyridin-3-yl)-2-hydroxypropyl)piperidin-3-ol] | ≥ 10000 | < 100 | –

More lines, main results first:

IC50 (NCI-H460 cells) [nM] | IC50 (PRS enzyme; [1]) [nM] | Structure (SMILES) | IC50 (PRS enzyme) [nM]
≤ 3000 | < 100 | O=C(C[C@H]1NCCC[C@@H]1O)Cn1cnc2cccc(-c3cccc(F)c3)c21 [Example 49, 1-(7-(3-fluorophenyl)-1H-benzo[d]imidazol-1-yl)-3-((2R,3S)-3-hydroxypiperidin-2-yl)propan-2-one] | –
≥ 10000 | 100 to 500 | O=C(C[C@H]1NCCC[C@@H]1O)Cn1cnc2cccc(-c3cccc(Cl)c3)c21 [Example 50, 1-(7-(3-chlorophenyl)-1H-benzo[d]imidazol-1-yl)-3-((2R,3S)-3-hydroxypiperidin-2-yl)propan-2-one] | –
≥ 10000 | 100 to 500 | O=C(C[C@H]1NCCC[C@@H]1O)Cn1cnc2cccc(-c3ccc(C(F)(F)F)cc3)c21 [Example 54, 1-((2R,3S)-3-hydroxypiperidin-2-yl)-3-(7-(4-(trifluoromethyl)phenyl)-1H-benzo[d]imidazol-1-yl)propan-2-one] | –
≥ 10000 | 100 to 500 | OC(C[C@H]1NCCC[C@@H]1O)Cn1cnc2ccc(-c3cccc(Cl)c3)cc21 (stereo partly drawn) [Example 63, (2R,3S)-2-(3-(6-(3-chlorophenyl)-1H-benzo[d]imidazol-1-yl)-2-hydroxypropyl)piperidin-3-ol] | –
